Reference: patent US20210378241A1, “COMBINATION COMPRISING A BENZAMIDE HERBICIDE AND A PYRIDINE CARBOXYLIC ACID HERBICIDE, AND A METHOD FOR MAKING AND USING THE COMBINATION” (Generic Crop Science LLC, priority 2020, published 2021)

Columns and labels:
[1] = tested on: weeds in seedling alfalfa; experiment: Field trial in seedling alfalfa, Brawley, Calif.: percent weed control (burndown), 0 to 100% visual scale; format: in vivo; settings: for Percent Weed Control (Burndown), mean: single application on seedling alfalfa, use rates of Table 5, 4 replicates; for Overall weed control (higher % control and lower weed densities), in words: all rating dates 6-34 DAA
From the text: (§1) The objective of this study was to evaluate the performance of PRONAMIDE and IMAZETHAPYR in commercial alfalfa hay production in Brawley, Calif. Trial treatments applied were as follows:
(§2) Treatments were applied on seedling alfalfa on March 14th at second to third trifoliate stage (3-4 inches tall). Treatment applications were made using a research CO2 backpack sprayer calibrated to deliver 50 gallons of solution per acre operating at 30 PSI. Weeds on the plots were on average 2-3 inches tall. Weather conditions during application were 34.3% RH, air and soil temperatures were 68° F. and 56.3° F. respectively, and soil moisture was dry.
(§3) Trial was rated at 6, 13, 20, 27 and 34 days after product application (DAA). On each rating date, Percent phytotoxicity and weed control based on a 0 to 100% visual scale, and weed density (number of weeds counted on 3 square yard quadrats) per plot were conducted.
(§4) Data was checked for normality assumptions and analyzed using a univariate Analysis of Variance, and the Least Significant Difference (LSD) mean separation test at a significance level of (α=0.1). Significant differences (p<0.1) were found for the dependent variables assessed at all rating dates (See ANOVA tables). Overall, treatments 5 (Raptor 4), 4 (PRONAMIDE and IMAZETHAPYR) and treatment 3 (WW2019-2) consistently provided the best control (higher % control and lower weed densities). Treatment efficacy as evidenced by % burndown (percent control was higher than 70% in all treatments 3-5) and weed counts (remained steady or declined up to this rating date) peaked at 27 DAA and subsequently declined (weed counts increased and percent control declined) at 34 DAA.

[2] = tested on: weeds in seedling alfalfa; experiment: Field trial in seedling alfalfa, Brawley, Calif.: weed density (weeds counted on square yard quadrats); format: in vivo; settings: use rates of Table 5
From the text: as §1, §2, §3, §4

[3] = tested on: smooth pigweed; settings: 0.05 to 0.14 kg ai/ha, regardless of application method or herbicide rate; cited from earlier work
[4] = tested on: jimsonweed; settings: 0.05 kg/ha; cited from earlier work
[5] = tested on: velvetleaf; settings: 0.10 kg/ha, regardless of the application method; cited from earlier work

SMILES	Percent Weed Control (Burndown), mean ([1]; 6 DA-A)	Percent Weed Control (Burndown), mean ([1]; 13 DA-A)	Percent Weed Control (Burndown), mean ([1]; 20 DA-A)	Percent Weed Control (Burndown), mean ([1]; 27 DA-A)	Percent Weed Control (Burndown), mean ([1]; 34 DA-A)	Overall weed control (higher % control and lower weed densities), in words [1]	Weed Density, mean ([2]; 6 DA-A)	Weed Density, mean ([2]; 13 DA-A)	Weed Density, mean ([2]; 20 DA-A)	Weed Density, mean ([2]; 27 DA-A)	Weed Density, mean ([2]; 34 DA-A)	Control of smooth pigweed [3]	Overall weed control (higher % control and lower weed densities), in words ([1]; listed as Treatment 3)	Overall weed control (higher % control and lower weed densities), in words ([1]; listed as WW2019-2)	Control of jimsonweed, better postemergence compared to soil applications [4]	Control of velvetleaf [5]
C#CC(C)(C)NC(=O)c1cc(Cl)cc(Cl)c1 [PRONAMIDE, 3,5-dichloro-n-(1,1-dimethyl-2-propynyl) benzamide]	15%	20%	38%	25%	8%	less beneficial weed control	51 Weeds per yd^2	41 Weeds per yd^2	42 Weeds per yd^2	43 Weeds per yd^2	81 Weeds per yd^2	–	–	–	–	–
CCc1cnc(C2=NC(C)(C(C)C)C(=O)N2)c(C(=O)O)c1 (centres unmarked) [IMAZETHAPYR, 2-[4,5-dihydro-4-methyl-4-(1-methylethyl)-5-oxo-1H-imidazol-2-yl]-5-ethyl-3-pyridinecarboxylic acid]	28%	33%	75%	79%	38%	–	35 Weeds per yd^2	25 Weeds per yd^2	29 Weeds per yd^2	24 Weeds per yd^2	39 Weeds per yd^2	≥ 90%	good weed control	best control	30%	≥ 90%
